Source: PMC8672371 (Biochemistry, 2021)
Positions count from the first letter of the chain named.

Tests used:
[1] = target: T1, RnVip (Rattus norvegicus, UniProt O70600, H77A); experiment: ddhCTP formation; format: biochemical; conditions: SAM, dithionite
T1 sequence (O70600 1-360 H77A): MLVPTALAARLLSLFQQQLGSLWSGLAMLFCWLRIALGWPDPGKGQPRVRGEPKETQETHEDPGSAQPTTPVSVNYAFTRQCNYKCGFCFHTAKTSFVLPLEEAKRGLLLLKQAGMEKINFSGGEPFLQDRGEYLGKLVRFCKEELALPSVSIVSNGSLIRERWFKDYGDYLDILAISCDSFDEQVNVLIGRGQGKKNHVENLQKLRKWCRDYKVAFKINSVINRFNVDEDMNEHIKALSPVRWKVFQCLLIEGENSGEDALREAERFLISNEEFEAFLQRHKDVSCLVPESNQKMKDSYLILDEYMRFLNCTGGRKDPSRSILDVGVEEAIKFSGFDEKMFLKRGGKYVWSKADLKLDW

[2] = target: MlVip (Methanofollis liminatans, UniProt J0S9F5); experiment: ddhNTP product by LC-MS; format: biochemical; conditions: SAM, dithionite; labelled compound (deuCTP)
[3] = target: NvVip (Nematostella vectensis, UniProt A7RNF3); experiment: X-ray crystal structure; format: binding; conditions: 1.42 Å, [4Fe-4S], anaerobic, active site
[4] = target: T2, RnVip (Rattus norvegicus, UniProt O70600, K317A); experiment: ddhCTP formation; format: biochemical; conditions: SAM, dithionite
T2 sequence (O70600 1-360 K317A): T1 sequence (O70600 1-360 H77A) with A77H, K317A

[5] = target: TvVip (Trichoderma virens, UniProt G9MQB8); experiment: X-ray crystal structure; format: binding; conditions: 3.2 Å; complex with SAM; active site

Nc1ccn([C@@H]2O[C@H](COP(=O)(O)OP(=O)(O)OP(=O)(O)O)[C@@H](O)[C@H]2O)c(=O)n1 [CTP]
ddhCTP formation [1]: We generated the RnVip variant H77A and the MmVip variant H79A | ddhNTP product by LC-MS; deu5'-dA formation [2]: only deuCTP was converted to the respective ddhNTP product by MlVip | X-ray crystal structure ([3]; complex with SAM): omit maps show strong density for CTP in the catalytic site | ddhCTP formation [4]: we generated a lysine to alanine variant in RnVip (K317A

C[S+](CC[C@H](N)C(=O)O)C[C@H]1O[C@@H](n2cnc3c(N)ncnc32)[C@H](O)[C@@H]1O (stereo partly drawn) [SAM]
X-ray crystal structure ([3]; complex with CTP): The asymmetric unit of NvVip contains one protein chain, a 4Fe-4S cluster, CTP, and SAM

O=c1ccn([C@@H]2O[C@H](COP(=O)(O)OP(=O)(O)OP(=O)(O)O)[C@@H](O)[C@H]2O)c(=O)[nH]1 [UTP]
X-ray crystal structure [5]: Crystals of TvVip bound to SAM and UTP exhibited diffraction
